± gives the expanded uncertainty stated by the source.
experiment: Boiling temperature at pressure P; conditions: 101 kPa; Liquid; Ebulliometric method (Recirculating still)

Row | Structure (SMILES) | Boiling temperature at pressure P [°C]
1 | O=Cc1ccco1 [2-furaldehyde] | 162 ± 1.6
2 | CC(=O)CC(C)C [4-methylpentan-2-one] | 117.4 ± 1.6
3 | OC1CCCC1 [cyclopentanol] | 139.4 ± 1.6
4 | CCOC(C)=O [ethyl acetate] | 77.1 ± 1.6
